This note sets out measurements from US9420813B2, “Sweetener” (AJINOMOTO CO., INC., priority 2007, dated 2016).

The nature of this assay: Quantitative sensory evaluation, improvement of body taste and bitterness of single high-intensity sweeteners (Examples 1 and 3). Details: species or system human. The settings on record: for Bitterness: control 0, <0 improved; for Bitterness / Body taste: n=12; for Body taste: control 0, >0 improved; for improvement of the body taste (conclusion in words): APM, sucralose or Ace-K solutions, Tables 6 to 8 and 13 to 15. The method, then:
The quantitative sensory evaluation test was performed as follows. As for standard solutions of each sweetener, the following compounds were used. The following standard solutions were adjusted so that they each have almost the same degree of sweetness.
iii) Sucralose (0.008 g/dl)
To distilled water containing each of the above sweeteners, γ-Glu-Cys-Gly (glutathione), γ-Glu-Val-Gly, or γ-Glu-Abu-Gly was added and mixed at concentrations of 0.0001 to 1 g/dl, and then the degree of the improvement of the body taste and the improvement of the bitterness on the sweet taste was measured.
When one of the mixtures is more acidic than the standard control solution, the pH of the sample solution was adjusted with NaOH to achieve a range of pH±0.2 with respect to the pH of the standard solution before use.
The sensory evaluation for the improvement of the body taste was performed with n=12 on the basis of the following criteria: a control (obtained by adding distilled water only and without adding glutathione and/or the peptide) was defined as 0, and by using the control as a standard, the following were defined: weak: −2 points; slightly weak: −1 point; slightly strong: 1 point, and strong: 2 points. A higher score than 0 means that the sample improved the body taste.
Alternatively, the sensory evaluation for the improvement of the bitterness was performed with n=12 on the basis of the following criteria: a control (obtained by adding distilled water only and without adding glutathione and/or the peptide) was defined as 0, and by using the control as a standard, the following were defined: weak: −2 points; slightly weak: −1 point; slightly strong: 1 point, and strong: 2 points. A lower score than 0 means that the sample improves the bitterness.
The quantitative sensory evaluation test was performed as follows. As for standard solutions of each sweetener, the following compounds were used. The following standard solutions have been adjusted so as they each have almost the same degree of sweetness.
To distilled water containing each sweeteners, γ-Glu-Val-Gly or cinacalcet was mixed as a sample at concentrations of 0.0001 to 1 g/dl, respectively, and then each degree of the improvement of the body taste and the improvement of the bitterness on the sweet taste was measured.
When a mixture is more acidic than the standard control solution, the pH of the mixture was adjusted with NaOH to achieve a range of pH±0.2 with respect to the pH of the standard solution before use.
The sensory evaluation for the improvement of the body taste was performed with n=12 on the basis of the following criteria: a control (obtained by adding distilled water only and without adding a sample) was defined as 0, and by using the control as a standard, the following were defined: weak: −2 points; slightly weak: −1 point; slightly strong: 1 point, and strong: 2 points. A higher score than 0 means that the sample improves the body taste.
Alternatively, the sensory evaluation for the improvement of the bitterness was performed with n=12 on the basis of the following criteria: a control (obtained with adding distilled water only and without adding a sample) was defined as 0, and by using the control as a standard, the following were defined: weak: −2 points; slightly weak: −1 point; slightly strong: 1 point, and strong: 2 points. A lower score than 0 means that the sample improves the bitterness.

The mark [1] stands for this setting: APM 0.025 g/dl, sample 0.0001 g/dl.
Setting [2] is: APM 0.025 g/dl, sample 0.001 g/dl.
Where [3] appears, read: Ace-K 0.025 g/dl, sample 0.0001 g/dl.
The mark [4] stands for this setting: Ace-K 0.025 g/dl, sample 0.001 g/dl.
[5] abbreviates: sucralose 0.008 g/dl, sample 0.0001 g/dl.
Setting [6] is: sucralose 0.008 g/dl, sample 0.001 g/dl.
Where [7] appears, read: APM 0.025 g/dl, sample 0.05 g/dl.
[8] abbreviates: Ace-K 0.025 g/dl, sample 0.05 g/dl.
The mark [9] stands for this setting: sucralose 0.008 g/dl, sample 0.05 g/dl.
The mark [10] stands for this setting: APM 0.025 g/dl, sample 0.001 g/dl (γ-Glu-Abu-Gly of Table 6).
Where [11] appears, read: Ace-K 0.025 g/dl, sample 0.01 g/dl.
Where [12] appears, read: sucralose 0.008 g/dl, sample 0.01 g/dl.

*1 amine or outer side, *2 acyl side, *3 side chain or, on linkers, in order; H or OH if unused. Where no end group is shown, it is not given here. [ ]: non-standard residue; d: D form. γGlu = O=C(O)[C@H](CCC(=O)[*:2])N[*:1]; Abu = CC[C@H](N)C(=O)O

With `C[C@@H](NCCCc1cccc(C(F)(F)F)c1)c1cccc2ccccc12` [Cinacalcet, (R)—N-(3-(3-(trifluoromethyl)phenyl)propyl)-1-(1-naphthyl)ethylamine, reference compound], the “improvement of the body taste (conclusion in words)” value was “improve the body taste at almost the same concentration”. Under setting [1], this compound showed a Bitterness of −0.2 points and a Body taste of 0.8 points. For the same compound, under setting [2], the Bitterness was −0.5 points and the Body taste is given as 1.5 points. Besides, under setting [3], the Taste profile entry is reported as “Sweet taste with growth is enhanced in middle”, the Bitterness was −0.2 points and the Body taste turned out to be 0.6 points. Besides, under setting [4], the Taste profile entry is “Sweet taste with growth is enhanced in middle”, the Bitterness is on record as −0.3 points and the Body taste is 1.1 points. For the same compound, under setting [5], the Bitterness was −0.1 points and the Body taste came to 0.5 points. Under setting [6], the Bitterness was −0.2 points and the Body taste is 1.1 points.
On to `N[C@@H](CCC(=O)N[C@@H](CS)C(=O)NCC(=O)O)C(=O)O` [γ-Glu-Cys-Gly, reference compound], for which, under setting [7], the Taste profile result is given as “Sweet taste is wholly enhanced”, the Bitterness was −0.5 points and the Body taste is 1.0 points. Under setting [8], this compound had a Bitterness of −0.6 points and a Body taste of 1.0 points. For the same compound, under setting [9], the Taste profile entry was “Sweet taste with growth is enhanced in middle”, the Bitterness is 0 points and the Body taste stood at 1.0 points.
Consider [γGlu]-[Abu]-Gly, for which the Taste profile entry was “Sweet taste is enhanced in initial taste” under setting [2] and “Sweet taste is enhanced in initial taste” under setting [10]. The Bitterness is on record as −0.1 points under setting [10]; −0.1 points under setting [2]; −0.6 points under setting [4]; −1.2 points under setting [11]; −0.1 points under setting [6]; −0.1 points under setting [12]. Besides, the Body taste was 1.5 points under setting [10]; 0.7 points under setting [2]; 0.5 points under setting [4]; 1.1 points under setting [11]; 0.5 points under setting [6]; 1.0 points under setting [12].
Turning to [γGlu]-Val-Gly, the “improvement of the body taste (conclusion in words)” value is given as “improve the body taste at almost the same concentration”. Under setting [1], this compound registered a Bitterness of −0.2 points and a Body taste of 0.5 points. Further, under setting [2], the Bitterness is given as −0.5 points and the Body taste amounted to 1.3 points. Also, under setting [3], the Taste profile entry is recorded as “Sweet taste with growth is enhanced in middle”, the Bitterness is −0.6 points and the Body taste was determined as 0.7 points. Further, under setting [4], the Taste profile entry is reported as “Sweet taste with growth is enhanced in middle”, the Bitterness was −1.2 points and the Body taste is 1.2 points. Under setting [5], the Bitterness is −0.1 points and the Body taste was found to be 0.7 points. Under setting [6], this compound came in with a Bitterness of −0.2 points and a Body taste of 1.3 points.
